Reference: ChEMBL document CHEMBL3751794, “α-Aryl pyrrolidine sulfonamides as TRPA1 antagonists” (Bioorg Med Chem Lett, 2016)

Tests used:
[1] = Lipophilicity, log D of compound at pH 7.4; assay type: physicochemical; conditions: buffer
[2] = molecular target: Transient receptor potential cation channel subfamily A member 1 (Homo sapiens, UniProt O75762); experiment: Inhibition of human TRPA1
[3] = Kinetic solubility of compound; assay type: physicochemical; conditions: read-out: Kinetic_solubility
[4] = Plasma protein binding in human; assay type: ADME, cell-free; conditions: read-out: PPB (converted)
[5] = Permeability across MDCK cells; assay type: ADME, cell-based, Canis lupus familiaris; conditions: dog, read-out: permeability
[6] = molecular target: Transient receptor potential cation channel subfamily A member 1 (Rattus norvegicus, UniProt Q6RI86); experiment: Inhibition of rat TRPA1
Sequence of Transient receptor potential cation channel subfamily A member 1 (Rattus norvegicus, UniProt Q6RI86) (Q6RI86 whole entry): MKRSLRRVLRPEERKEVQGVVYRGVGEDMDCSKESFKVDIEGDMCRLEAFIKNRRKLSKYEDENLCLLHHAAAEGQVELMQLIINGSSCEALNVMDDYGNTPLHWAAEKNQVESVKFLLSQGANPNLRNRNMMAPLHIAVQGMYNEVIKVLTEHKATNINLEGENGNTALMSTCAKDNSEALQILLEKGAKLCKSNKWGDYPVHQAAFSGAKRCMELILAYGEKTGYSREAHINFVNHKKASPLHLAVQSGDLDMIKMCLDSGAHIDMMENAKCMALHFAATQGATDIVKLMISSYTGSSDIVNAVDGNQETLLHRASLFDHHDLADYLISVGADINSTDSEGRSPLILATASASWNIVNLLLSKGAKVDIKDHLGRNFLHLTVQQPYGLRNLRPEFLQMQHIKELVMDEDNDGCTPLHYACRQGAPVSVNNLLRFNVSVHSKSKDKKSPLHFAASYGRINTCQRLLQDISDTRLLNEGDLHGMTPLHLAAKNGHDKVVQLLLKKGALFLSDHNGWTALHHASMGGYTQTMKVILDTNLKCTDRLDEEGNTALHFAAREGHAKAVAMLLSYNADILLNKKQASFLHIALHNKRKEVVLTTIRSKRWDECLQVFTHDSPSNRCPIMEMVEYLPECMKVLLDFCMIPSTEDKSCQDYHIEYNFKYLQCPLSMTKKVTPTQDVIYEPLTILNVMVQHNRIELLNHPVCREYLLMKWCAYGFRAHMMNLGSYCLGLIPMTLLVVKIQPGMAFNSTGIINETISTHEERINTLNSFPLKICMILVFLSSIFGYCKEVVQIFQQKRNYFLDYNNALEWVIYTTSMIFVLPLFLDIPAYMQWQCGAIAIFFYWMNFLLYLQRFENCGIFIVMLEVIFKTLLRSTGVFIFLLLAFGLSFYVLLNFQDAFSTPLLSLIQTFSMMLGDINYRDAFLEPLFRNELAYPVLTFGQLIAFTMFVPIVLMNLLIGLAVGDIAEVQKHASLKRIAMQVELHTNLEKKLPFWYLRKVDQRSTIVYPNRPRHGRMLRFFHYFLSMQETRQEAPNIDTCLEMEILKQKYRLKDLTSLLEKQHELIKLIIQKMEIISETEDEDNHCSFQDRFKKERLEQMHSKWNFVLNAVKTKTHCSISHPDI

Sequence of Transient receptor potential cation channel subfamily A member 1 (Homo sapiens, UniProt O75762) (O75762 whole entry): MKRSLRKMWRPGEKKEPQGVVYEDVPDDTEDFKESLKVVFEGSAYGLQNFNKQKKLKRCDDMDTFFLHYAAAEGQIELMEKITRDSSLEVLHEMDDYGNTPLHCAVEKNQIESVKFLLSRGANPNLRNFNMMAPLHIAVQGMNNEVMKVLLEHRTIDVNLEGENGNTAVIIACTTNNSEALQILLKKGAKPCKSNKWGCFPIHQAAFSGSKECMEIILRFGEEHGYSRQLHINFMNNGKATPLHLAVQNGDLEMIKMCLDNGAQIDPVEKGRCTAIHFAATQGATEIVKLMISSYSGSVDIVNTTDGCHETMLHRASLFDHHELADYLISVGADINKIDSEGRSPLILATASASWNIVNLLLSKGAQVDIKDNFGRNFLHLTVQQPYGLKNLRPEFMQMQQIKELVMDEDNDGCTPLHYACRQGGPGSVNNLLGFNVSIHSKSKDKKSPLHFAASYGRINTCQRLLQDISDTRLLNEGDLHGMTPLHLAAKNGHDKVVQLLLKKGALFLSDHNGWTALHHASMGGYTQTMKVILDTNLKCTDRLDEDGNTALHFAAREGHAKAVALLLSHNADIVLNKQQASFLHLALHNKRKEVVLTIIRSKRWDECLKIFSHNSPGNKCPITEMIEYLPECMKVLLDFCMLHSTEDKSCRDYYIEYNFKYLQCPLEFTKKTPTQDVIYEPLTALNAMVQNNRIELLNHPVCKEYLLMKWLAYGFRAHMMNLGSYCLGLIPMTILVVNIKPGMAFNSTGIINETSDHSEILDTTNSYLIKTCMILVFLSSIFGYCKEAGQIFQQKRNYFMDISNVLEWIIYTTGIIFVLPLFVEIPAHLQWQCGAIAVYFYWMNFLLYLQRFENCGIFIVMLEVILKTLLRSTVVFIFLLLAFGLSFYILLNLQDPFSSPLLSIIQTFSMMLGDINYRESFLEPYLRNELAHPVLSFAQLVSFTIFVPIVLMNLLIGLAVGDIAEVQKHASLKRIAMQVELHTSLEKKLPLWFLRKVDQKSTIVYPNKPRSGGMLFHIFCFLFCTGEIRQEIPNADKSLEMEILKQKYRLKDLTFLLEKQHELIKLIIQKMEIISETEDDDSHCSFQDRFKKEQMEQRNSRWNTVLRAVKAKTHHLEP

logD [1] | IC50 [2] | solubility kinetic [3] | fraction unbound [4] | Papp [5] | IC50 [6] | Compound
4.2 | 0.023 µM | – | – | – | – | Cc1cc(S(=O)(=O)N2CC(F)(F)C[C@@H]2c2ccc(F)cc2)cc(C)c1F
3.8 | 0.11 µM | < 1 µM | 0.006 | 57 nm/s | 7.3 µM | O=S(=O)(c1cc(Cl)c(F)c(Cl)c1)N1[C@H](CO)CC[C@@H]1c1ccc(F)cc1
3.9 | 0.02 µM | – | – | – | – | Cc1cc(S(=O)(=O)N2CC[C@@H](F)[C@@H]2c2ccc(F)cc2)cc(C)c1F
3.6 | 0.13 µM | – | – | – | – | Cc1cc(S(=O)(=O)N2[C@H](CO)CC[C@@H]2c2ccc(F)cc2)cc(Cl)c1F
3.1 | > 20 µM | – | – | – | – | Cc1cc(C(=O)N2[C@H](CO)CC[C@@H]2c2ccc(F)cc2)cc(C)c1F
3.7 | > 18 µM | – | – | – | – | Cc1cc(S(=O)(=O)N2[C@H](CN(C)C)CC[C@@H]2c2ccc(F)cc2)cc(C)c1F
2.7 | > 20 µM | – | – | – | – | CNC[C@@H]1CC[C@H](c2ccc(F)cc2)N1S(=O)(=O)c1cc(C)c(F)c(C)c1
4.6 | 0.35 µM | – | – | – | – | O=S(=O)(c1cc(Cl)c(F)c(Cl)c1)N1CCC[C@@H]1c1ccc(F)cc1
4 | 6.7 µM | – | – | – | – | Cc1cc(CN2[C@H](CO)CC[C@@H]2c2ccc(F)cc2)cc(C)c1F
3.3 | 0.063 µM | – | – | – | – | Cc1cc(S(=O)(=O)N2[C@H](CO)CC[C@@H]2c2ccc(F)cc2)cc(C)c1F
4.3 | > 20 µM | – | – | – | – | Cc1cc(S(=O)(=O)N2[C@H](CNCC(F)(F)F)CC[C@@H]2c2ccc(F)cc2)cc(C)c1F
2.2 | > 19 µM | – | – | – | – | O=S(=O)(c1ccccc1)N1[C@H](CO)CC[C@@H]1c1ccc(F)cc1
2.8 | 0.19 µM | – | – | – | – | Cc1cc(S(=O)(=O)N2[C@H](CO)CC[C@@H]2c2ccc(F)cc2)ccc1F
1.1 | > 20 µM | – | – | – | – | O=S(=O)(c1cccnc1)N1[C@H](CO)CC[C@@H]1c1ccc(F)cc1
3.2 | 0.29 µM | – | – | – | – | Cc1cc(C)cc(S(=O)(=O)N2[C@H](CO)CC[C@@H]2c2ccc(F)cc2)c1
2 | > 20 µM | – | – | – | – | O=S(=O)(c1ccc(F)cn1)N1[C@H](CO)CC[C@@H]1c1ccc(F)cc1
2.6 | 0.38 µM | – | – | – | – | Cc1cc(S(=O)(=O)N2C[C@H](F)C[C@@H]2c2ccc(F)cc2)cc(C)c1F
3.2 | 6.6 µM | – | – | – | – | O=S(=O)(c1ccc(F)cc1)N1CCC[C@@H]1c1ccc(F)cc1
4.4 | 0.11 µM | – | – | – | – | Cc1cc(S(=O)(=O)N2CCC[C@@H]2c2ccc(F)cc2)cc(C)c1F
3.9 | 0.27 µM | – | – | – | – | COC[C@@H]1CC[C@H](c2ccc(F)cc2)N1S(=O)(=O)c1cc(C)c(F)c(C)c1
